“Also recorded” adds a separate entry of the source.
Assays:
[1] = test system: acetaminophen-induced hepatic disorder; test: Effect on acetaminophen-induced hepatic disorder; format: in vivo, Male SD rats; settings: 500 mg/kg oral, 1 hour before acetaminophen, 24 hours
Protocol: In this experiment, cysteineglucuronolactone and cysteineglucuronic acid salts (CG groups) were tested for their effects on acetaminophen-induced hepatic disorder in terms of their ability to suppress elevations in serum GOT, GPT, LDH and ALP. […] In the control and normal groups, 10 ml/kg of 0.5% CMC was orally administered and, in the CG groups, 500 mg/10 ml/kg of the respective compound was orally administered. An hour later, 400 mg/15 ml/kg of acetaminophen was intraperitoneally administered to the control and CG groups while 15 ml/kg of physiological saline was intraperitoneally administered to the normal group.

[2] = test system: galactosamine-induced hepatopathy; test: Effect on galactosamine-induced hepatopathy; format: in vivo, Male Wistar rats
Protocol: Galactosamine-induced hepatopathy is caused by inhibition of glycoprotein and protein metabolisms and has been used as an experimental model since it pathologically resembles viral hepatitis.
(§1) Male Wistar rats were used after fasting.
Fifteen (15) hours later, a second administration was performed in the same dose. […] Twenty-four (24) hours thereafter, blood samples were collected for the assay of s-GOT and s-GPT.

[3] = Solubility of the calcium salt; format: physicochemical
[4] = test system: CCl4-induced chronic hepatic disorder; test: Effect on CCl4-induced chronic hepatic disorder; format: in vivo, Male SD rats; settings: for Pathological examination of the liver: H.E. staining, compared with control group
Protocol: Male SD rats were used in two groups, namely the control group and the CGCa group.
CCl4 was dissolved in olive oil in a concentration of 10% (w/v) and the solution was intraperitoneally administered in a dose of 5 ml/kg twice a week (Tuesday and Friday) for 10 weeks. Three days after the last CCl4 administration, blood samples were collected in each group for the assay of s-GOT, s-GPT, etc. Assay of liver hydroxyproline (HyP) and pathological examination of the liver following H.E. staining were also performed.

[5] = test system: CCl4-induced acute hepatic disorder; test: Effect on CCl4-induced acute hepatic disorder, (A)-1 (time of pre-administration); format: in vivo, Wistar-strain male rats
Protocol: Wistar-strain male rats were used after fasting.
The hepatic disorder inducer CCl4 was intraperitoneally administered to each group in a dose of 0.08 ml/kg (diluted with olive oil so as to give a dose volume of 5 ml/kg) and, after about 18 hours, the blood was sampled for the assay of s-GOT and s-GPT.

[6] = Transfer to plasma and plasma level duration after oral administration; format: in vivo, rabbits; settings: for Transfer to bloodstream on oral administration: rabbit, in vivo
Protocol: The sera separated from the blood samples were deproteinized with trichloroacetic acid and, then, free cysteine in the sera as well as cysteine resulting from hydrolysis following heating was determined by fluorescence labeling and high performance liquid chromatography (HPLC).

mice = test: Acute toxicity in mice, intravenous injection (LD50)
Excerpt: Acute toxicity of the compounds according
to the invention in terms of LD50
Referring to the above table, the injection No. 1 was adjusted to pH 7.0-7.2 by adding sodium carbonate after dissolution of the sample.

[7] = Acute oral toxicity test in mice (LD50); settings: mouse, in vivo
[8] = test system: alcohol-induced hepatopathy; test: Effect on alcohol-induced hepatopathy (liver TG); format: in vivo, Male Wistar rats
Protocol: as §1
After 13 hours, 20% alcohol was orally administered at 5 g/kg. After 8 hours, the liver was removed and TG was determined by the acetylacetone method.

[9] = test system: CCl4-induced acute hepatic disorder; test: Effect on CCl4-induced acute hepatic disorder, (A)-2 (dose); format: in vivo, Male Wistar rats; settings: for s-GOT / s-GPT: 10 hours before CCl4
Protocol: Ten hours later, CCl4 was intraperitoneally administered in a dose of 0.08 ml/kg. About 18 hours thereafter, the blood was sampled for the assay of s-GOT and s-GPT.

hepatic disorder models = test: Hepatic disorder models, overall statement; format: in vivo; settings: oral
[10] = test system: carbon tetrachloride-induced hepatic disorder; test: Further experiments with CGL and CGNa: suppression of s-GOT and s-GPT after CCl4; format: in vivo, rats; settings: 2.0 g/kg oral 1 hour earlier than CCl4 0.08 ml/kg i.p.; versus control group
Protocol: In further experiments in which cysteineglucuronolactone (CGL) and sodium cysteineglucuronate (CGNa) were respectively administered orally in a dose of 2.0 g/kg 1 hour earlier than intraperitoneal administration of 0.08 ml/kg of CCl4, the percent suppressions of s-GOT and s-GPT obtained as compared with the control group were as shown below.

[11] = 2.0 g/kg oral twice, galactosamine hydrochloride 400 mg/kg i.p., 24 hours
[12] = 5% CGCa in diet, CCl4 twice a week for 10 weeks
[13] = CGCa I group, 2.0 g/kg oral 12 hours before CCl4
[14] = CGCa II group, 2.0 g/kg oral 10 hours before CCl4
[15] = CGCa III group, 2.0 g/kg oral 8 hours before CCl4
[16] = CGCa IV group, 2.0 g/kg oral 6 hours before CCl4
[17] = CGCa V group, 2.0 g/kg oral 4 hours before CCl4

SMILES: O=C(O)C1CSC(C(O)C(O)C(O)C(O)C(=O)O)N1 (stereo not shown) [CGCa, Calcium cysteineglucuronate]
- ALP [1]: 11.4 ± 1.52 BL (BesseyLowry) units
- LDH [1]: 705.1 ± 283.3 Wroblewski units
- s-GOT [1]: 284.2 ± 136.3 Karmen units
- s-GPT [1]: 121.7 ± 33.7 Karmen units
- s-GOT [2, 11]: 1643.1 ± 480.43 Karmen units
- s-GPT [2, 11]: 702.3 ± 223.08 Karmen units
- elevation of s-GOT (in words) ([2]; oral, p<0.05): inhibited the elevations significantly (p<0.05)
- elevation of s-GPT (in words) ([2]; oral, p<0.05): inhibited the elevations significantly (p<0.05)
- Solubility (in words) [3]: low solubility
- elevation of LDH (in words) ([4]; 0.05<p<0.10): tended to suppress
- ALP [4, 12]: 59.5 ± 23.83 King-Armstrong units
- Albumin [4, 12]: 3.4 ± 0.28 g/dL
- Cholinesterase [4, 12]: 0.014 ± 5.16 × 10^-3 ΔpH
- LDH [4, 12]: 491.7 ± 312.24 Wroblewski units
- Liver HyP [4, 12]: 371.6 ± 93.05 µg/g
- Serum iron [4, 12]: 215.0 ± 39.01 µg/dL
- Total bilirubin [4, 12]: 0.35 ± 0.108 mg/dL
- s-GOT [4, 12]: 358.9 ± 157.13 Karmen units
- s-GPT [4, 12]: 130.3 ± 53.56 Karmen units
- γ-GTP [4, 12]: 3.0 ± 1.50 mU/ml
- Pathological examination of the liver [4]: although vacuolar degeneration was found, the original lobular structure of the liver was preserved without evidence of hepatocirrhosis, such as formation of pseudolobules; also recorded: Necrosis was scattered and cellular infiltration was slight as compared with the control group; also recorded: effective against the damage and fibrosis of hepatocytes
- Pathological examination of the liver ([4]; listed as CGC2): suppression of the fibrosis
- elevation of hydroxyproline (HyP) (in words) ([4]; liver, p<0.05): significantly suppressed
- elevation of s-GOT (in words) ([4]; p<0.05): significantly suppressed
- elevation of s-GPT (in words) ([4]; p<0.05): significantly suppressed
- CCl4-induced increase of s-GPT (in words) ([5]; 10 or 12 hours earlier administration, p<0.05): significantly suppressed
- s-GOT [5, 13]: 1134.9 ± 361.57 Karmen units
- s-GPT [5, 13]: 310.5 ± 68.08 Karmen units
- s-GOT [5, 14]: 921.6 ± 198.34 Karmen units
- s-GPT [5, 14]: 308.5 ± 42.30 Karmen units
- s-GOT [5, 15]: 929.0 ± 201.14 Karmen units
- s-GPT [5, 15]: 328.2 ± 105.72 Karmen units
- s-GOT [5, 16]: 1493.3 ± 480.60 Karmen units
- s-GPT [5, 16]: 502.4 ± 210.66 Karmen units
- s-GOT [5, 17]: 1453.0 ± 515.58 Karmen units
- s-GPT [5, 17]: 516.3 ± 166.50 Karmen units
- CCl4-induced increase of s-GOT (in words) ([5]; administered 8 to 10 hours earlier than CCl4, p<0.05): significantly suppressed (p<0.05)
- Lapse of time until free cysteine content in plasma began to increase ([6]; rabbits, oral 500 mg/kg): 2 h
- Free cysteine content in plasma after 24 hours ([6]; rabbits, oral 500 mg/kg, 24 hours): at a normal value
- Duration of increased blood cysteine levels compared with equimolar cysteine ([6]; rabbits, oral, versus equimolar amount of cysteine): increased blood cysteine levels can be maintained for a prolonged period
- Acute toxicity (in words) (mice): somewhat increased toxicity
- LD50 [7]: 7500 mg/kg
- Liver TG ([8]; 2.0 g/kg oral 13 hours before 20% alcohol 5 g/kg, 8 hours after alcohol): 4.4 ± 1.29 mg/g liver
- increase of liver TG level due to alcohol (in words) ([8]; oral, p<0.05): significantly suppressed this increase (p<0.05)
- increase in s-GOT ([9]; 1.43 g/kg): tendency toward suppression
- increase of s-GPT (in words) ([9]; 1.43 g/kg, p<0.05): significantly suppressed
- increase in s-GOT ([9]; 2.0 g/kg, p<0.05): significantly suppressed (p<0.05)
- increase in s-GPT (in words) ([9]; 2.0 g/kg, p<0.05): significantly suppressed (p<0.05)
- s-GOT ([9]; CGCa I group, 1.02 g/kg oral): 1755.6 ± 784.49 Karmen units
- s-GPT ([9]; CGCa I group, 1.02 g/kg oral): 427.2 ± 131.72 Karmen units
- s-GOT ([9]; CGCa II group, 1.43 g/kg oral): 1192.0 ± 264.07 Karmen units
- s-GPT ([9]; CGCa II group, 1.43 g/kg oral): 309.5 ± 86.25 Karmen units
- s-GOT ([9]; CGCa III group, 2.0 g/kg oral): 1106.2 ± 224.53 Karmen units
- s-GPT ([9]; CGCa III group, 2.0 g/kg oral): 299.9 ± 79.85 Karmen units

SMILES: O=C(O)C1CSC(C(O)C2OC(=O)C(O)C2O)N1 (stereo not shown) [CGL, Cysteineglucuronolactone]
- ALP [1]: 10.7 ± 1.04 BL (BesseyLowry) units
- LDH [1]: 540.3 ± 238.1 Wroblewski units
- s-GOT [1]: 185.0 ± 83.3 Karmen units
- s-GPT [1]: 85.5 ± 22.7 Karmen units
- depression of GOT (in words) (hepatic disorder models): significant depressions
- depression of GPT (in words) (hepatic disorder models): significant depressions
- Transfer to bloodstream on oral administration [6]: translocated into the bloodstream
- Suppression of s-GOT [10]: 35.0%
- Suppression of s-GPT [10]: 34.8%

SMILES: O=C(O)C1CSC(C(O)C(O)C(O)C(O)C(=O)O)N1 (stereo not shown) [CGMg, Magnesium cysteineglucuronate]
- ALP [1]: 12.8 ± 1.20 BL (BesseyLowry) units
- LDH [1]: 857.5 ± 296.1 Wroblewski units
- s-GOT [1]: 386.3 ± 88.1 Karmen units
- s-GPT [1]: 141.9 ± 27.5 Karmen units

SMILES: O=C(O)C1CSC(C(O)C(O)C(O)C(O)C(=O)O)N1 (stereo not shown) [CGNa, Sodium cysteineglucuronate]
- ALP [1]: 10.4 ± 1.22 BL (BesseyLowry) units
- LDH [1]: 557.2 ± 240.7 Wroblewski units
- s-GOT [1]: 180.1 ± 63.0 Karmen units
- s-GPT [1]: 78.4 ± 13.7 Karmen units
- Suppression of s-GOT [10]: 37.2%
- Suppression of s-GPT [10]: 39.3%

SMILES: O=C(O)C1CSC(C(O)C(O)C(O)C(O)C(=O)O)N1 (stereo not shown) [cysteineglucuronic acid, Cysteineglucuronic acid]
- depression of GOT (in words) (hepatic disorder models): significant depressions
- depression of GPT (in words) (hepatic disorder models): significant depressions
- Transfer to bloodstream on oral administration [6]: translocated into the bloodstream

Source: US4870071A, “Prophylactic and therapeutic agnet for hepatic disorder” (Senju Pharmaceutical Co., Ltd., priority 1986, dated 1989)
